Measurements published in patent US20040266718A1, “Inhibition of specific histone deacetylase isoforms” (priority 2001, published 2004).
d = 2'-deoxy (DNA); m = 2'-O-methyl

Assays:
[1] = test system: human colon cancer cells (HCT116); experiment: tumor growth in mouse model, colon; assay type: in vivo, BALB/c nude mice; conditions: 40 mg/kg body weight/day, po
Method: (§1) Female BALB/c nude mice were obtained from Charles River Laboratories (Charles River, N.Y.) and used at age 8-10 weeks. Human prostate tumor cells (DU145, 2×10^6) or human colon cancer cells (HCT116; 2×10^6) or […] A549 2×106 were injected subcutaneously in the animal's flank and allowed to form solid tumors. Tumor fragments were serially passaged a minimum of three times, then approximately 30 mg tumor fragments were implanted subcutaneously through a small surgical incision under general anaesthesia. Small molecule inhibitor administration by intraperotineal or oral administration was initiated when the tumors reached a volume of 100 mm^3. For intraperotineal administration, small molecule inhibitors of HDAC (40-50 mg/kg body weight/day) were dissolved in 100% DMSO and administered daily intraperitoneally by injection. For oral administration, small molecule inhibitors of HDAC (40-50 mg/kg body weight/days) were dissolved in a solution containing 65% polyethylene glycol 400 (PEG 400 (Sigma-Aldridge, Mississauga, Ontario, CA, Catalogue No. P-3265), 5% ethanol, and 30% water. Tumor volumes were monitored twice weekly up to 20 days. Each experimental group contained at least 6-8 animals. Percentage inhibition was calculated using volume of tumor from vehicle-treated mice as controls.

[2] = test system: human colon cancer HCT116 cells; experiment: MTT assay of cell proliferation; assay type: cell-based; conditions: HCT-116, 72 hours
Method: Two thousand (2,000) human colon cancer HCT116 cells (ATCC, Manassas, Va. were used in an MTT (3-[4,5-dimethylthiazol-2-yl]-2,5 diphenyl tetrazolium bromide) assay to quantitatively determine cell proliferation and cytotoxicity. Typically, HCT116 cells were plated into each well of the 96-well tissue culture plate and left overnight to attach to the plate. Compounds at various concentrations were added into the culture media (final DMSO concentration 1%) and incubated for 72 hours. MTT solution (obtained from Sigma as powder) was added and incubated with the cells for 4 hours at 37° C. in incubator with 5% CO2. During the incubation, viable cells convert MTT to a water-insoluble formazan dye. Solubilizing buffer (50% N,N-dimethylformamide, 20% SDS, pH 4.7) was added to cells and incubated for overnight at 37C in incubator with 5% CO2. Solubilized dye was quantitated by calorimetric reading at […] using a reference of […]. Optical density values were converted to cell number values by comparison to a standard growth curve for each cell line.

human HDAC-4 = target: T1, human HDAC-4 (Homo sapiens, UniProt P56524); experiment: histone deacetylase enzyme assay, HDAC-4; assay type: biochemical; conditions: recombinant human enzyme, [3H]-acetylated histone substrate, 2 hours; read-out: Enzyme IC50 (μM) HDAC4
T1 construct: Flag; made in house
Method: Flag-tagged human HDAC-4 enzyme was produced in human embronic kidney 293 cells after transformation by the calcium phosphate precipitation method. Briefly, 293 cells were cultured in Dulbecco's Modified Eagle Medium (DMEM) containing 10% fetal bovine serum and antibiotics. Plasmid DNA encoding Flag-tagged human HDAC-4 was precipitated by ethanol and resuspend in sterile water. DNA-calcium precipitates, formed by mixing DNA, calcium choloride and 2× HEPES-buffered saline solution, were left on 293 cells for 12-16 hours. Cells were return to serum-contained. DMEM medium and harvested at 48 hour post transfection for purification of Flag-tagged HDAC-4 enzyme.
(§2) The other HDAC isotypes, HDAC-3 and HDAC-4, were purified directly on an anti-Flag affinity column.
For the deacetylase assay, 20,000 cpm of an [^3H]-metabolically-labeled acetylated histone was used as a substrate. Histones were incubated with cloned recombinant human HDAC enzymes at 37° C. […] All assay conditions were pre-determined to be certain that each reaction was linear. Reactions were stopped by adding acetic acid (0.04 M, final concentration) and HCl (250 mM, final concentration). The mixture was extracted with ethyl acetate, and the released [^3H]-acetic acid was quantified by liquid scintillation counting. […]

human HDAC-1 = target: T2, human HDAC-1 (Homo sapiens, UniProt Q13547); experiment: histone deacetylase enzyme assay, HDAC-1; assay type: biochemical; conditions: recombinant human enzyme, [3H]-acetylated histone substrate, 10 minutes; read-out: Enzyme IC50 (μM) HDAC1
T2 construct: made in house; host or cells: insect cells (baculovirus expression system)
Method: as §2
(§3) For the deacetylase assay, 20,000 cpm of an [^3H]-metabolically-labeled acetylated histone was used as a substrate. Histones were incubated with cloned recombinant human HDAC enzymes at 37° C. […] All assay conditions were pre-determined to be certain that each reaction was linear. Reactions were stopped by adding acetic acid (0.04 M, final concentration) and HCl (250 mM, final concentration). The mixture was extracted with ethyl acetate, and the released [^3H]-acetic acid was quantified by liquid scintillation counting. For the inhibition studies, HDAC enzyme was preincubated with test compounds for 30 minutes at 4° C. prior to the start of the enzymatic assay. IC50 values for HDAC enzyme inhibitors were identified with dose response curves for each individual compound and, thereby, obtaining a value for the concentration of inhibitor that produced fifty percent of the maximal inhibition.

[3] = test system: Human cancer HCT116 cells; experiment: cell cycle arrest by FACS; assay type: cell-based; conditions: HCT116, 16 hours; concentration to induce a (G2+M)/S ratio of 2.5
Method: Human cancer HCT116 cells were plated at 2×10^5 per 10-cm dish and were left to attach to the dish overnight in the incubator. Cells were treated with small molecule inhibitors at various concentrations (1 uM and 10 uM, typically, dissolved in DMSO) for 16 hours. Cells were harvested by trypsinization and washed once in 1×PBS (phosphate buffered saline). The cells were resuspended in about 200 ul 1×PBS and were fixed by slowly adding 1 ml 70% ethanol at −20° C. and were left at least overnight at −20° C. Fixed cells were centrifuged at low speed (1,000 rpm) for 5 minutes, and the cell pellets were washed again with 1×PBS. Nucleic acids from fixed cells were incubated in a staining solution (0.1% (w/v) glucose in 1×PBS containing 50 ug/ml propidium iodide) (Sigma-Aldridge, Mississauga, Ontario, CA) and RNase A (final 100 units/ml, (Sigma-Aldridge, Mississauga, Ontario, CA) for at least 30 minutes in the dark at 25° C. DNA content was measured by using a fluorescence-activated cell sorter (FACS) machine. Treatment of cells with all HDAC small molecule inhibitors in Table 2 results in a significant accumulation of cancer cell in G2/M phase of the cell cycle and concomitantly reduce the accumulation of cancer cells in S phase of the cell cycle. The ratio of cells in G2/M phase vs. cells in the S. phase was determined. […]

[4] = test system: acetylated histone H-4 in T24 human bladder cancer cells; experiment: inhibition of HDAC activity in whole cells (acetylated histone H-4 Western blot); assay type: cell-based; conditions: 16 hours
Method: T24 human bladder cancer cells (ATCC, Manassas, Va.) growing in culture were incubated with test compounds for 16 hours. Histones were extracted from the cells by standard procedures (see e.g. Yoshida et al., supra) after the culture period. Twenty μg total core histone protein was loaded onto SDS/PAGE and transferred to nitrocellulose membranes, which were then reacted with polyclonal antibody specific for acetylated histone H-4 (Upstate Biotech Inc., Lake Placid, […].). Horse Radish Peroxidase conjugated secondary antibody was used at a dilution of 1:5000 to detect primary antibody binding. The secondary antibody binding was visualized by use of the Enhanced chemiluminescence (ECL) detection kit (Amersham-Pharmacia Biotech., Inc., Piscataway, N.J.). After exposure to film, acetylated H-4 signal was quantitated by densitometry.

human HDAC-3 = target: T3, human HDAC-3 (Homo sapiens, UniProt O15379); experiment: histone deacetylase enzyme assay, HDAC-3; assay type: biochemical; conditions: recombinant human enzyme, [3H]-acetylated histone substrate, 2 hours; read-out: Enzyme IC50 (μM) HDAC3
T3 construct: made in house; host or cells: insect cells (baculovirus expression system)
Method: as §2, §3

A549 [5] = experiment: tumor growth in mouse model, lung; assay type: in vivo, BALB/c nude mice; conditions: 50 mg/kg body weight/day, ip
Method: as §1

human HDAC-6 = target: T4, human HDAC-6 (Homo sapiens, UniProt Q9UBN7); experiment: histone deacetylase enzyme assay, HDAC-6; assay type: biochemical; conditions: recombinant human enzyme, [3H]-acetylated histone substrate, 2 hours; read-out: Enzyme IC50 (μM) HDAC6
T4 construct: made in house; host or cells: insect cells (baculovirus expression system)
Method: as §2, §3

A549 [6] = experiment: cell growth analysis (trypan blue cell count), A549; assay type: cell-based, human; conditions: 50 nM, 72 hours
Method: (§4) Briefly, human A549 and/or T24 human bladder carcinoma cells were seeded in 10 cm tissue culture dishes one day prior to oligonucleotide treatment. The cell lines were obtained from the American Type Culture Collection (ATCC) (Manassas, Va.) and were grown under the recommended culture conditions. Before the addition of the oligonucleotides, cells were washed with PBS (phosphate buffered saline). Next, lipofectin transfection reagent (GIBCO BRL Mississauga, Ontario, Calif.), at a concentration of 6.25 μg/ml, was added to serum free OPTIMEM medium (GIBCO BRL, Rockville, Md.), which was then added to the cells. The oligonucleotides to be screened were then added directly to the cells (i.e., one oligonucleotide per plate of cells). Mismatched oligonucleotides were used as controls. The same concentration of oligonucleotide (e.g., 50 nM) was used per plate of cells for each oligonucleotide tested.
(§5) In order to determine the effect of HDAC OSDNs on cell growth and cell death through apoptosis, A549 or T24 cells, MDAmb231 cells, and HMEC cells (ATCC, Manassas, Va.) were treated with HDAC OSDNs as previously described.
(§6) Cells were harvested and cell numbers counted by trypan blue exclusion using a hemocytometer. Percentage of inhibition was calculated as (100—AS cell numbers/control cell numbers)%.

human HDAC-4 RNA = experiment: antisense screen by Northern blot in T24 cells, HDAC-4; assay type: cell-based; conditions: screened as above (T24 cells, 100 nM, 24 hours)
Method: Seventeen phosphorothioate ODNs containing sequences complementary to the 5′ or 3′ UTR of the human HDAC-4 gene (GenBank Accession No. AB006626) were screened as above. […] HDAC-4 MM1 and MM2 oligonucleotides were created as controls; compared to the antisense oligonucleotides, they each contain a 6-base mismatch.
as §4
Cells were harvested, and total RNAs were analyzed by Northern blot analysis. Briefly, total RNA was extracted using RNeasy miniprep columns (QIAGEN). […]

MDAmb231 [7] = experiment: cell growth analysis (trypan blue cell count), MDAmb231; assay type: cell-based, human; conditions: 50 nM, 72 hours
Method: as §4, §5, §6

A549 [8] = experiment: apoptosis, Cell Death Detection ELISA, A549; assay type: cell-based, human; conditions: OSDN
Method: as §5
(§7) For the apoptosis study, cells were analyzed using the Cell Death Detection ELISA^Plus kit (Roche Diagnostic GmBH, Mannheim, Germany) according to the manufacturer's directions. Typically, 10,000 cells were plated in 96-well tissue culture dishes for 2 hours before harvest and lysis. Each sample was analyzed in duplicate. ELISA reading was done using a MR700 plate reader (DYNEX Technology, Ashford, Middlesex, England) at 410 nm. The reference was set at 490 nm.

HMEC = experiment: apoptosis, Cell Death Detection ELISA, HMEC; assay type: cell-based, human; conditions: OSDN, normal cells
Method: as §5, §7

T24 [9] = experiment: apoptosis, Cell Death Detection ELISA, T24; assay type: cell-based, human; conditions: OSDN
Method: as §5, §7

T24 [10] = experiment: cell growth analysis (trypan blue cell count), T24; assay type: cell-based, human; conditions: 50 nM, 72 hours
Method: as §4, §5, §6

[11] = test system: p21 protein in A549 cells; experiment: Western blot of p21 protein in A549 cells; assay type: cell-based, human; conditions: FIG. 15
MDAmb231 [12] = experiment: apoptosis, Cell Death Detection ELISA, MDAmb231; assay type: cell-based, human; conditions: OSDN
Method: as §5, §7

human HDAC-7 RNA = experiment: antisense screen by Northern blot in T24 cells, HDAC-7; assay type: cell-based; conditions: screened as above (T24 cells, 100 nM, 24 hours)
Method: Eighteen phosphorothioate ODNs containing sequences complementary to the 5′ or 3′ untranslated regions of the human HDAC-7 gene (GenBank Accession No. AF239243) were screened as above.
as §4
Cells were harvested, and total RNAs were analyzed by Northern blot analysis. Briefly, total RNA was extracted using RNeasy miniprep columns (QIAGEN). Ten to twenty μg of total RNA was run on a formaldehyde-containing 1% agarose gel with 0.5 M sodium phosphate (pH 7.0) as the buffer system. […]

T2 sequence (Q13547 whole entry): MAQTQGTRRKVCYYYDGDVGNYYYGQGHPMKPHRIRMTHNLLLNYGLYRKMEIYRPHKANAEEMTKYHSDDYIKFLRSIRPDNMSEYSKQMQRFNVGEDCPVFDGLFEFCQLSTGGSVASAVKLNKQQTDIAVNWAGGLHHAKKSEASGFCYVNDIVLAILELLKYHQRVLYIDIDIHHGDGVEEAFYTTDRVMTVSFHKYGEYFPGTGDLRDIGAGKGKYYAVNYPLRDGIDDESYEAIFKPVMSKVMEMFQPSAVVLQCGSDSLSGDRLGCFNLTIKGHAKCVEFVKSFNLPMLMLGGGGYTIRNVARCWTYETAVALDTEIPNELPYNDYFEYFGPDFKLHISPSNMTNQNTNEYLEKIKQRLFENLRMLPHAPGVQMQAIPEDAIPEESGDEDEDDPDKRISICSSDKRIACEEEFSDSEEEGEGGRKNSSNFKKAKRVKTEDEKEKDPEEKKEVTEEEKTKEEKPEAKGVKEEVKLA
T3 sequence (O15379 whole entry): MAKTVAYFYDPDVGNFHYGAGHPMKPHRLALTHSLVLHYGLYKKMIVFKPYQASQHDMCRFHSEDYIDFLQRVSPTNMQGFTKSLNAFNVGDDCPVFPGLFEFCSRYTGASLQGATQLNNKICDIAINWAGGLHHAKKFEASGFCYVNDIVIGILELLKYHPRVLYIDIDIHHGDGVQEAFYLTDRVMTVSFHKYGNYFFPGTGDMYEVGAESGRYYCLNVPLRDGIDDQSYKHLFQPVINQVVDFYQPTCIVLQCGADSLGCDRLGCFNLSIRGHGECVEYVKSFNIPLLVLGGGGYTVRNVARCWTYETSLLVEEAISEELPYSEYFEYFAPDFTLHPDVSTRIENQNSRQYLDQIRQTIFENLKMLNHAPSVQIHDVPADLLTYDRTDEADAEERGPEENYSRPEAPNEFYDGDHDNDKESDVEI
T4 sequence (Q9UBN7 whole entry): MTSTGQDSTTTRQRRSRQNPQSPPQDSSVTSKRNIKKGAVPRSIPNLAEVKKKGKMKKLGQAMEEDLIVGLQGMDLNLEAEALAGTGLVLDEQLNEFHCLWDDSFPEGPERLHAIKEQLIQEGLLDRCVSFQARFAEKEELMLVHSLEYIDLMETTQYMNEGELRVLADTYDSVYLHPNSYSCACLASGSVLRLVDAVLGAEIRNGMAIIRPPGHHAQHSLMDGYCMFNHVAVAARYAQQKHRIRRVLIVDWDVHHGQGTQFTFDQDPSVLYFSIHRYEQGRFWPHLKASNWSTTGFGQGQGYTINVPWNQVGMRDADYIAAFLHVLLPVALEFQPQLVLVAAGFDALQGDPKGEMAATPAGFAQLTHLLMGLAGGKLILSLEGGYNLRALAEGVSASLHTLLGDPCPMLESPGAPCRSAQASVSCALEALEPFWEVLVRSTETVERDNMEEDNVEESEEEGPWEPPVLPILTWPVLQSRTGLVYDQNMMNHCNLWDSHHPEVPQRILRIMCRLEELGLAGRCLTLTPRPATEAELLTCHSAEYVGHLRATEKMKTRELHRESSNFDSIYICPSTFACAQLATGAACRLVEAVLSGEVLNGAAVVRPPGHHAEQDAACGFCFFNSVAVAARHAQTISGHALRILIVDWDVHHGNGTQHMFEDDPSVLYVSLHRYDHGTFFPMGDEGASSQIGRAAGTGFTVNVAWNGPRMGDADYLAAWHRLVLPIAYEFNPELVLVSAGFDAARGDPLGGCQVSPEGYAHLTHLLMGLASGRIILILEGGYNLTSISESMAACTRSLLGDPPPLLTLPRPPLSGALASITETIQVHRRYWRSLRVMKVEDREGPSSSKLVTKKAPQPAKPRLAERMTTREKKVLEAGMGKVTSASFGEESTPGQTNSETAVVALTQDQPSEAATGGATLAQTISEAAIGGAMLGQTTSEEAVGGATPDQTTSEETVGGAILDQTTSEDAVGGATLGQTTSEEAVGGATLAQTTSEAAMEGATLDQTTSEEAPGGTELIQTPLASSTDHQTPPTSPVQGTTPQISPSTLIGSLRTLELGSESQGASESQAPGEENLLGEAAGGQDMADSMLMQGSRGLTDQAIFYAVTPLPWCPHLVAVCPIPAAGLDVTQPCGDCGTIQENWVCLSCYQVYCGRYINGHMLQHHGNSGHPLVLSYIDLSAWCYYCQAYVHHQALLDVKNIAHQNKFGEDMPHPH
T1 sequence (P56524 whole entry): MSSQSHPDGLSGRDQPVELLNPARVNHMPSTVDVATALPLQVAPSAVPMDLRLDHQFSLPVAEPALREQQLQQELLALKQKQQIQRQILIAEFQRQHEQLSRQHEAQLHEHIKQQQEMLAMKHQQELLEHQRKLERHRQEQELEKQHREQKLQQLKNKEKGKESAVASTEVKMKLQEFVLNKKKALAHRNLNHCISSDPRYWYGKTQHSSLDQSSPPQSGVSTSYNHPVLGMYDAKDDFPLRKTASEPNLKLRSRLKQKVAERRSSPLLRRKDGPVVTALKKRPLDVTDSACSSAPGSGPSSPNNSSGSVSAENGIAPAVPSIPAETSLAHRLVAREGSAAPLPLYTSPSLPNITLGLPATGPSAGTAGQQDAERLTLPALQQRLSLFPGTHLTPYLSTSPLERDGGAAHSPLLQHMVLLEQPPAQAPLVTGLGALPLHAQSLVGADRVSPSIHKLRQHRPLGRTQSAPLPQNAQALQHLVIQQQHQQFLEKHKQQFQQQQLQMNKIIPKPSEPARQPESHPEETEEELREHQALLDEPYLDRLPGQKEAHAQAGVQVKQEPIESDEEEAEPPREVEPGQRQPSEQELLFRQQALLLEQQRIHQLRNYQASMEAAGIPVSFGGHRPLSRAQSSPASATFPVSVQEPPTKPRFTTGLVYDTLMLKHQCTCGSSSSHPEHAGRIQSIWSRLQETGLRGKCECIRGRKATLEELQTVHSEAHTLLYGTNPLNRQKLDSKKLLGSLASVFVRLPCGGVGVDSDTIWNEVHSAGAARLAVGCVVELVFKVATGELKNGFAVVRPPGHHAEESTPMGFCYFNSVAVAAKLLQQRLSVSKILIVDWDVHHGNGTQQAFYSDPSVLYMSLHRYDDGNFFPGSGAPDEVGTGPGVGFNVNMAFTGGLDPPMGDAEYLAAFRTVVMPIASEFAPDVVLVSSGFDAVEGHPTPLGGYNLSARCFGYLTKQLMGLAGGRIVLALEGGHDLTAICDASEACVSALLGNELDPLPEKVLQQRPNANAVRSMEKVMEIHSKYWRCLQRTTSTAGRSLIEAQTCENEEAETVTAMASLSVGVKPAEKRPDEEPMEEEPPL

Compound: Nc1ccccc1NC(=O)/C=C/C#Cc1cccc(NS(=O)(=O)c2ccccc2)c1 [Compound 2]
- % inhibitor of tumor formation in vivo, colon [1]: 53%
- EC50 [2]: 4 µM
- IC50 (human HDAC-4): 35 µM
- IC50 (human HDAC-1): 3 µM
- Cell Cycle Arrest EC [3]: 8 µM
- H4-Ac [4]: 5 µM
- IC50 (human HDAC-3): 30 µM
- % inhibitor of tumor formation in vivo, lung (A549 [5]): 54%
- IC50 (human HDAC-6): > 30 µM

Compound: HDAC-4 AS1: antisense oligonucleotide to human HDAC4, 5-GCTGCCTGCCGTGCCCACCC-3′ (SEQ ID NO:24) (sugars from the 5' end m4 d12 m4, all phosphorothioate, methylation of C and T or U not given here)
- Growth Inhibition (AS vs. MM) A549 (A549 [6]): +++ (>75% inhibition)
- antisense activity to human HDAC-4 (RNA expression, Northern blot) (human HDAC-4 RNA): antisense activity
- Growth Inhibition (AS vs. MM) MDAmb231 (MDAmb231 [7]): ++ (50-75% inhibition)
- Apoptosis After 48 Hour Treatment A549 (A549 [8]): +++ (5-8X fold)
- Apoptosis After 48 Hour Treatment HMEC (HMEC): − (< = 2x fold over non-specific background)
- Apoptosis After 48 Hour Treatment T24 (T24 [9]): + (2-3X fold)
- Growth Inhibition (AS vs. MM) T24 (T24 [10]): ++ (50-75% inhibition)
- expression of the p21 protein [11]: induces the expression of the p21 protein
- Apoptosis After 48 Hour Treatment MDAmb231 (MDAmb231 [12]): ++ (3-5X fold)

Compound: HDAC-7 AS: antisense oligonucleotide to human HDAC7, 5′-CTTCAGCCAGGATGCCCACA-3′ (SEQ ID NO:31) (sugars from the 5' end m4 d12 m4, all phosphorothioate, methylation of C and T or U not given here)
- antisense activity to human HDAC-7 (RNA expression, Northern blot) (human HDAC-7 RNA): antisense activity
